Reference: patent publication US20060111335A1, “Photoactivated anti-viral and anti-cancer agent” (priority 2002, published 2006)
Where two headings read alike, the source gives them in different places.

Key:
[1] = Dark thermal aquation and thermal base hydrolysis; type: physicochemical; details: 80° C. with 10% NaOH
Text: A dissociation/addition mechanism is generally accepted as responsible for the substitution chemistry associated with a hexacoordinated Rh(III) ligand field triplet (Weiland et al., Inorg. Chem., 25:4893 (1986)). The dissociation step is due to the promotion of an electron from the t2g orbital to the eg orbital, which leads to significant weakening of the metal ligand bonds. (Hipps et al., Inorg. Chem., 13:1544 (1974)).

M109 cells = assay: Phototoxicity to M109 tumor cells, MTT assay; type: cell-based, mouse; details: OCTBP, 55 μM (FIG. 10)
Protocol: (§1) Photolysis with Tumor Cells.
Procedures for cell maintenance, cell plating, drug incubation, photolysis and MTT assay are all same as that used for the KB cell lines. A small amount of dark toxicity was observed (about 15%). A considerable amount of killing occurs with light alone after 30 and 40 minutes of irradiation (FIG. 10).

φX-174 plasmid DNA = assay: Photonicking of φX-174 plasmid DNA, gel electrophoresis; type: biochemical; details: Example IX, dark and upon exposure to light
Protocol: Photolysis with φX-174 Plasmid DNA. Metal complex solutions (with or without quenchers) were saturated with oxygen or argon prior to irradiation. The solutions were further degassed after being mixed with the plasmid. The final solution concentrations were: DPPZPHEN ([…]), φX-174 plasmid DNA (205 μM in base pairs), superoxide dismutase (25 μg/mL), 2-propanol (0.5 M), mannitol (6.25 mM), histidine (8 mM).
Experiments were conducted as described in Example X to evaluate the amount photonicking that occurred in the dark and upon exposure to light for 37TMBP, 56TMBP, OCTBP, BISNMe2, TMOBP, TIOBP, TPBP, BISTAP and BISDPPZ.

[2] = Photodestruction (photoaquation) with visible light >500 nm, HPLC analysis; type: physicochemical; details: 0.1 mM aqueous, 8 hours under argon
Protocol: Aqueous solutions (3 mL, 0.1 mM) of the Rh complexes were irradiated for 8 hours under argon using a 450 W Hanovia medium pressure mercury lamp filtered through a uranium yellow glass (cut-off<330 nm) and a 1.5 cm 0.5% (w/v) aqueous solution of K2Cr2O7 (0% transmittance≦500 nm). Photodestruction of the metal complexes was followed by HPLC analysis.

KB cells = assay: Phototoxicity to KB tumor cells, MTT assay
Protocol: Photolysis with Tumor Cells. […] At the beginning of an experiment media was removed from all plates and the cells were washed with 1 mL of PBS or Hank's salt solution. Drug solution (2 mL) or buffer solution (2 mL) was added to each dish. […] Cells were incubated, with or without metal complex, for 4 hours. After incubation, the solutions were removed from the dishes and the dishes were washed with 1 mL of PBS or Hank's salt solution. A fresh 1 mL of PBS or Hank's salt solution was added to each dish and these were placed on a turntable that sat on the top part of the photolysis chamber. […] The plates were then incubated for 40-48 hours before a determination of the extent of cell toxicity by MTT assay.
Cells were incubated in 75 cm^2 culture flasks. They were grown in Dulbecco's Modified Eagles Medium (D-MEM) supplemented with 10% heat inactivated fetal bovine serum (FBS), 1% L-glutamine-penicillin-streptomycin and 1% amphotericin-B. When cells were not plated for use in an experiment, they were transferred when they were 75-100% confluent using the following procedure. Media was decanted from the flask. Cells were rinsed 1-2 times with 10 mL of Hank's Balanced salt solution. […] Trypsin-EDTA was then decanted and the cells were released from the wall of the flask by tapping the side of the flask. Released cells were suspended in 5 mL media and 1 mL of this suspension was placed in a new culture flasks containing 20 mL of fresh media. The remaining cells were discarded. A culture flask can be used for 3 transfers.
Usually 16-24 hours before a photolysis experiment, cells were plated in 35×10 mm tissue culture dishes and incubated at 37° C. until the experiment was begun. Cells were about 75-100% confluent in the 75 cm^2 culture flask when plated. After being washed and released from the flask as described above, cells were suspended in 40 mL media and 1.5 mL of suspension was placed in each dish.
The concentration of the solution was 70 μM.
The cell dishes were incubated with drug or Hanks balanced salt solution (1 mL) for 3 hours. After incubation, solutions were decanted from the plates and 1 mL of Hank's Balanced salt solution were placed in each. […] Following photolysis, Hank's Balanced salt solutions were decanted and 1 mL of fresh media was placed in each plate.
Plates were incubated for 65 hours and then analyzed for cell survival by MT assay. 5 mg/mL MTT solution in water was prepared and 100 μL of this solution was added to each plate and the plates were incubated for 1.5 hours. Purple crystals formed from live cells. Media was gently removed from plates using a Pasteur pipette, the purple crystals that remained at the bottom of the dish were dissolved in 6 mL of isopropanol.
Phototoxicity studies with long wavelength light (>400 nm). […]

GN4 cells = assay: Phototoxicity to GN4 tumor cells, MTT assay; type: cell-based, canine
Protocol: as §1
Media was decanted from the flask. […] Trypsin-EDTA was then decanted and the flask was incubated at 37° C. for 8 minutes. […] Released cells were suspended in 5 mL of media and shaken well. […] The remaining cells were discarded.
Cells were plated, incubated with the drug, and photolysis was conducted as for the KB cell lines.

[3] = Reversed phase HPLC elution on C8 column as measure of hydrophobicity; type: physicochemical; details: 45% acetonitrile in 100 mM ammonium acetate pH 5.4
Protocol: Reversed phase high performance liquid chromatography (RP-HPLC) was carried out on C8 columns. Compounds were tested using 20%, 30% and 45% acetonitrile in 100 mM ammonium acetate at pH 5.4 for elution on a C8 column, with the intention of achieving an elution time of about 15 minutes. It was expected that the more hydrophobic a compound, the higher the acetonitrile content one would need for the eluent.

cells = assay: Phototoxicity, summary statement of Example XII; type: cell-based
Calf thymus DNA = assay: Dark association with DNA, UV-Visible titration (Example XI); type: binding; details: 50 mM pH 7 I=0.15 sodium phosphate buffer (physiological condition)
Protocol: Preparation of DNA solution. Calf thymus DNA (Sigma) was dissolved in 50 mM, pH 7, I=0.15 sodium phosphate buffer (Physiological condition) and sonicated. The purity of the DNA was checked by monitoring the absorption spectrum and the ratio of the absorbance at 260 to 280 nm. The ratio were within the acceptable purity margin (1.8±0.1). The concentration of the Calf thymus DNA per phosphate was determined spectrophotometrically: ε253=6600 for calf thymus DNA^1. The concentration was 2.13 E-3 M.
The resulting solution was diluted 4 times with phosphate buffer. […] 0, 50 μL, 150 μL, 200 μL, 300 μL, 350 μL and 500 μL of DNA solutions were added, mixed well with a small disposable needle, and spectra were recorded again. The concentration of the species, the apparent absorbance at 337 nm, and the apparent extinction coefficients at 337 nm were determined from the absorptions spectra and tabulated in Table 1.
The apparent binding constant, Kapp was determined from the plot of [DNA]/Δεapp versus [DNA], where Δεapp=εf−εapp and Δε=εf−εb^2, where εb and εf correspond to the extinction coefficient of the DNA-bound form of the OCTBP derivatives and the extinction coefficient of the DNA-unbound OCTBP derivatives, respectively. […] Cb=(εfCtotal−Aobserved)/Δε The concentration of the DNA-unbound OCTBP derivatives (Cf) can be determined by Cf=Ctotal−Cb […]

[4] = system: calf thymus DNA than BSA protein; assay: In vitro kinetic and thermodynamic studies of affinity, DNA versus protein; type: binding
cell membrane = assay: Cell uptake / passage through the cell membrane
Protocol: OCTBP uptake by KB cells. 11 mg of OCTBP was dissolved in 40 mL of PBS buffer. The solution was vortex stirred for 5 minutes to completely dissolve the solid. The solution was sterile filtered through a 0.2μ nylon syringe filter. The concentration of the solution was determined by measuring the UV absorption at 353 nm (ε353nm=1565 M^−1cm^−1).
Once the cells were 75% confluent media was decanted from the flasks and 8 mL of drug solutions were added to three flasks and 8 mL of PBS buffer solution was added to the control flask. The flasks were incubated at 37° C. for 15, 30 and 45 minutes. Control flask was incubated for 45 minutes. When the flasks were removed, they were washed with 6×10 mL of PBS buffer solution. All the liquid was carefully decanted from the flasks. 1 mL of lysing buffer (1% triton X-100) was added to each of the four flasks. The walls of the flasks were rinsed using disposable pipettes. Once all the contents of the flasks were placed into a 1.5 mL disposable centrifuge tubes (each flask yielded ˜1.2 mL), the tubes were centrifuged at 6000 rpm and at 4° C. for 30 minutes on the Fisher Model 59V high-speed centrifuge. BCA Assay was done to establish the amount of cells in each flask.
Rh content of each flask was determined using an inductively coupled plasma (ICP) instrument (AtomScan16, Thermo Elemental, Franklin, Mass.). From each centrifuge tube 1 mL was pipetted and 370 μL of concentrated HCl was added to form a 10% solution. The samples were heated in a hot water bath at 70° C. for 30 minutes. The samples were centrifuged again and the supernatant liquid was diluted to 8 mL by adding nano-pure water. The samples were analyzed for Rh content by ICP.

nucleic acid = details: cited from earlier work
Sindbis virus = details: cited from earlier work
DNA = details: dark; cited from earlier work
protein = details: cited from earlier work
bacteriophage φ6 = details: cited from earlier work
cell = details: cited from earlier work
[5] = cited from earlier work

CC1=C[N]2c3c4c(ccc3=C1C)=C(C)C(C)=C[N]4[Rh+]21([Cl])([Cl])[N]2C=C(C)C(C)=c3ccc4c(c32)[N]1C=C(C)C=4C.[Cl-] [OCTBP, cis-dichlorobis(3,4,7,8-tetramethyl-1,10-phenanthroline) rhodium(III) chloride]
thermal hydrolysis, rank order [1]: OCTBP≅37TMBP>BISPHEN | dark toxicity (M109 cells): about 15% | photonicking of φX-174 plasmid DNA (φX-174 plasmid DNA): Only TPBP, BISTAP, BISDPPZ and BISDPPHEN complexes were found to photonick | photodestruction [2]: 9.3 % loss | cell death (KB cells; OCTBP 55 μM, >400 nm light, 60 minutes): 40% | dark toxicity (KB cells; OCTBP 70 μM): dark toxicity wasn't observed | dark toxicity (KB cells; OCTBP 80 μM): considerable amount of dark toxicity | photo-cell death (GN4 cells; OCTBP 55 μM, 311 nm): no photo-cell death occurred | cell death (GN4 cells; OCTBP 63 μM, >400 nm light, 60 minutes): 25% | photo-initiated cell death (GN4 cells; OCTBP 75 μM, 311 nm, 40 minutes): about 20% | elution time [3]: about 15 minutes | phototoxicity (cells): are phototoxic | apparent (intrinsic) binding constant Kapp (Calf thymus DNA): 4.25 E3 M | affinity toward calf thymus DNA compared with BSA protein [4]: greater affinity toward calf thymus DNA than BSA protein | ability to pass through the cell membrane (cell membrane): able to pass through the cell membrane

[Cl-].[Cl][Rh+]12([Cl])([N]=c3c(c4ccccc4c4ccccc34)=[N]1)[N]1C=CC=c3ccc4c(c31)[N]2C=CC=4 [PHENPHI, cis-dichloro(1,10-phenanthroline)(9,10-phenathrenequinone diimine)rhodium(III) chloride]
photonuclease activity (nucleic acid): exhibited photonuclease activity | covalent binding to nucleic acid upon irradiation (nucleic acid; irradiated with light): covalently binds to DNA | phototoxicity / virucidal activity against Sindbis virus (Sindbis virus): potent virucidal activity | Keq of dark association with DNA (DNA): 37000 M⁻¹ | binding affinity for protein (protein): substantial binding affinity for protein | activity against bacteriophage φ6 (bacteriophage φ6): potent virucidal activity | photoinduced cell death (cell): substantial photoinduced cell death | penetration of the cell membrane (cell; without liposomes): does not require liposomes to penetrate the cell membrane | stability ([5]; 37° C., phosphate-buffered saline (PBS) pH 7): decomposing | ligand exchange ([5]; acetate buffer pH 5): readily substitutes acetate for chloride ligand | stability ([5]; room temperature, Tris buffer pH 7): decomposing
